The results in this text go back to PubChem BioAssay (NCI).

Some test systems named below: SK-MEL-28 melanoma; UACC-62 melanoma; MOLT-4 leukemia; IGROV1 ovarian; SNB-75 CNS; U251 CNS; CAKI-1 renal; RXF 393 renal; NCI-H460 lung; OVCAR-4 ovarian.
Test in all cases: NCI anticancer screen, dose series, 48 h

Values joined by “and” are separate entries in the source; they are usually repeats but may differ in a detail not shown here. Equal entries are not always repeated.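 Tested at 5 concentrations; 48 h exposure; 96-well plates; endpoints linearly interpolated, else capped at highest concentration. At the GI50, growth is halved. Definition used: TGI = concentration required for complete inhibition of growth.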

In the case of `Cc1ccc(SSCC(O)C(O)CSSc2ccc(C)cc2)cc1` (stereo unspecified), the TGI in the experiment with SK-MEL-28 melanoma was 26.8 µM and 28.6 µM; with UACC-62 melanoma, 17.2 µM and 31 µM; in the experiment with MOLT-4 leukemia, 5.96 µM and 20.9 µM; in the experiment with IGROV1 ovarian it was 5.87 µM and 6.81 µM; in the experiment on SNB-75 CNS, 22.2 µM and 31.8 µM; in the experiment with U251 CNS, 10.9 µM and 12 µM. The TGI was 15.4 µM and 27 µM in the experiment with CAKI-1 renal; 16.9 µM and 16.1 µM with RXF 393 renal; 32.2 µM and 36.3 µM with NCI-H460 lung; 26.8 µM and 28.5 µM in the experiment on OVCAR-4 ovarian. The GI50 in the experiment on UACC-62 melanoma was 4.81 µM and 15.8 µM; in the experiment with MOLT-4 leukemia, 1.43 µM and 3.12 µM; with SNB-75 CNS, 5.97 µM and 16.2 µM; in the experiment with CAKI-1 renal it was 4.04 µM and 13.2 µM.

For `Cc1nc(NS(=O)(=O)c2ccc(NCN3C(=O)c4ccccc4C3=O)cc2)oc1C`, the GI50 with SK-MEL-28 melanoma, with UACC-62 melanoma, in the experiment on MOLT-4 leukemia, in the experiment on IGROV1 ovarian, in the experiment on SNB-75 CNS and in the experiment with U251 CNS was over 100 µM throughout. The GI50 in the experiment on CAKI-1 renal, in the experiment on RXF 393 renal, in the experiment with NCI-H460 lung and with OVCAR-4 ovarian was over 100 µM throughout. Further, the TGI in the experiment on SK-MEL-28 melanoma, in the experiment with UACC-62 melanoma, in the experiment on MOLT-4 leukemia, in the experiment on IGROV1 ovarian, in the experiment with SNB-75 CNS and in the experiment on U251 CNS was over 100 µM throughout. Further, the TGI with CAKI-1 renal, with RXF 393 renal, in the experiment on NCI-H460 lung and with OVCAR-4 ovarian was over 100 µM each time.

`Fc1ccc2c(c1)C1=C(CCC2)C(c2ccc(Cl)cc2)NC(=S)N1` (stereo unspecified): the GI50 with SK-MEL-28 melanoma was 78 µM; in the experiment with UACC-62 melanoma it was 33.6 µM; in the experiment on MOLT-4 leukemia, 24.5 µM; with IGROV1 ovarian, 10.3 µM; in the experiment with SNB-75 CNS it was 69.9 µM; in the experiment with U251 CNS, 54.7 µM. For the same compound, the GI50 is 51.7 µM in the experiment on CAKI-1 renal, 81.4 µM with RXF 393 renal, 32.7 µM in the experiment on NCI-H460 lung and 44.8 µM in the experiment on OVCAR-4 ovarian. The TGI with SK-MEL-28 melanoma, in the experiment with UACC-62 melanoma, with MOLT-4 leukemia, with IGROV1 ovarian, in the experiment with SNB-75 CNS and in the experiment with U251 CNS was over 100 µM each time. In addition, the TGI with CAKI-1 renal, in the experiment with RXF 393 renal, in the experiment on NCI-H460 lung and in the experiment on OVCAR-4 ovarian was over 100 µM each time.

Take `CC(=O)c1c[nH]c2ccc(-c3ccnc(Nc4ccc(NC(=O)C5CCCC5)c(CN5CCOCC5)c4)n3)cc12`: the GI50 was 0.0404 µM with SK-MEL-28 melanoma; 0.0205 µM with UACC-62 melanoma; 0.0287 µM in the experiment with MOLT-4 leukemia; 0.0366 µM with IGROV1 ovarian; 0.0316 µM in the experiment with U251 CNS; 0.0168 µM with CAKI-1 renal. For the same compound, the GI50 in the experiment on RXF 393 renal was 0.0114 µM; with NCI-H460 lung it was 0.033 µM; in the experiment with OVCAR-4 ovarian, 0.0453 µM. Further, the TGI in the experiment with SK-MEL-28 melanoma was determined as 0.27 µM; with UACC-62 melanoma, 0.0481 µM; with MOLT-4 leukemia, 0.474 µM; in the experiment with IGROV1 ovarian, 0.377 µM; with SNB-75 CNS, 0.042 µM; in the experiment with CAKI-1 renal it was 0.561 µM. Besides, the values for the TGI in the experiment on RXF 393 renal, with NCI-H460 lung and in the experiment on OVCAR-4 ovarian were 0.036 µM, 0.125 µM and 0.573 µM, respectively.

Regarding `O=C1NC(=O)C(=Cc2cn(Cc3ccccc3)c3ccccc23)C(=O)N1`, the GI50 was 15 µM with SK-MEL-28 melanoma; 2.07 µM with UACC-62 melanoma; 12.9 µM in the experiment on MOLT-4 leukemia; 0.489 µM with IGROV1 ovarian; 7.61 µM with SNB-75 CNS; 12.8 µM in the experiment on U251 CNS. Also, the GI50 in the experiment on CAKI-1 renal is 2.15 µM; in the experiment on RXF 393 renal, 11.6 µM; with NCI-H460 lung, 0.264 µM; in the experiment on OVCAR-4 ovarian, 4.84 µM. In addition, the TGI in the experiment with SK-MEL-28 melanoma was 30.6 µM; in the experiment with UACC-62 melanoma, 15.7 µM; with MOLT-4 leukemia it was 32.9 µM; in the experiment with IGROV1 ovarian it was 10.5 µM; in the experiment with SNB-75 CNS, 27.1 µM; in the experiment with U251 CNS it was 28.9 µM. Moreover, the TGI in the experiment with CAKI-1 renal amounted to 10.5 µM; with RXF 393 renal, 48.3 µM; in the experiment on NCI-H460 lung, 13.4 µM; with OVCAR-4 ovarian it was 21 µM.

As for `COc1ccc(N2C(=O)[C@@H](N=[N+]=[N-])[C@@H]2[C@H]2COC(C)(C)O2)cc1`, the TGI in the experiment with SK-MEL-28 melanoma, with UACC-62 melanoma, in the experiment with MOLT-4 leukemia, with IGROV1 ovarian, in the experiment on SNB-75 CNS and in the experiment with U251 CNS was over 100 µM throughout. In addition, the TGI in the experiment with CAKI-1 renal, in the experiment on RXF 393 renal, in the experiment with NCI-H460 lung and in the experiment on OVCAR-4 ovarian was over 100 µM each time.

In the case of `CCC(C)(O)c1cn(-c2ccc(Cl)cc2)nn1` (stereo unspecified), the TGI in the experiment with SK-MEL-28 melanoma, with UACC-62 melanoma, with MOLT-4 leukemia, in the experiment with IGROV1 ovarian, in the experiment on SNB-75 CNS and in the experiment on U251 CNS was over 100 µM throughout. The TGI in the experiment on CAKI-1 renal, with RXF 393 renal, in the experiment with NCI-H460 lung and in the experiment with OVCAR-4 ovarian was over 100 µM in each case.

Regarding `COC1=C(OC)C(=O)C(C/C=C(\C)CC/C=C(\C)CC/C=C(\C)CC/C=C(\C)CC/C=C(\C)CC/C=C(\C)CC/C=C(\C)CC/C=C(\C)CC/C=C(\C)CCC=C(C)C)=C(C)C1=O`, the GI50 in the experiment with SK-MEL-28 melanoma, in the experiment with UACC-62 melanoma, in the experiment on MOLT-4 leukemia, with IGROV1 ovarian, in the experiment with SNB-75 CNS and in the experiment on U251 CNS was over 100 µM in each case. Moreover, the GI50 in the experiment on CAKI-1 renal, in the experiment with RXF 393 renal, in the experiment on NCI-H460 lung and in the experiment on OVCAR-4 ovarian was over 100 µM in each case. Besides, the TGI in the experiment on SK-MEL-28 melanoma, in the experiment with UACC-62 melanoma, in the experiment with MOLT-4 leukemia, in the experiment on IGROV1 ovarian, with SNB-75 CNS and in the experiment with U251 CNS was over 100 µM throughout. In addition, the TGI with CAKI-1 renal, in the experiment on RXF 393 renal, in the experiment with NCI-H460 lung and in the experiment with OVCAR-4 ovarian was over 100 µM each time.

For the compound `COc1ccc2nc(C)cc(Sc3nc4ccccc4s3)c2c1`, the GI50 is 2.45 µM with SK-MEL-28 melanoma; 0.717 µM in the experiment with UACC-62 melanoma; 1.25 µM with MOLT-4 leukemia; 2.2 µM in the experiment with IGROV1 ovarian; 0.885 µM in the experiment on SNB-75 CNS; 1 µM with U251 CNS. The GI50 was 2.63 µM with RXF 393 renal, 1.89 µM in the experiment on NCI-H460 lung and 0.993 µM with OVCAR-4 ovarian. The TGI in the experiment with SK-MEL-28 melanoma turned out to be 9.89 µM; in the experiment with UACC-62 melanoma, 7.51 µM; with MOLT-4 leukemia it was 7.92 µM; with IGROV1 ovarian it was 13.9 µM; in the experiment on SNB-75 CNS, 5.12 µM; with U251 CNS it was 3.06 µM. Further, the TGI was 0.626 µM with CAKI-1 renal, 8.19 µM with RXF 393 renal, 5.35 µM with NCI-H460 lung and over 21.2 µM in the experiment with OVCAR-4 ovarian.
